Measurements from patent publication US20250255847A1, “[…]s: Novel Drugs for Triple Negative Breast Cancer” (SIMMARON RSEARCH INC, priority 2024, published 2025).

Assays:
[1] = tested on: TNBC tumor parenchyma; test: Histology, IHC and TUNEL of PDX tumor tissue; type: in vivo, mouse; settings: for H&E staining: size and color intensities of tumor cells: 2 mg/Kg Bwt i.p.; for apoptosis in TNBC tumor (TUNEL staining): FIG. 14; for Ki-67 immunoreactivity in tumor parenchyma: p<0.0001 vs control
Experimental: FIG. 13 illustrates an embodiment of the present invention and illustrates the effects of SIM-1 and SIM-2 on the growth arrest of TNBC tumors. […] The higher magnification images were given below. (B) Area of 50 randomly selected cells (10 different images from n=5 mice/group) from three different groups were measured using polygon tool of ImageJ software and then the scatter histogram analysis was performed using GraphPad Prism 10 statistical software package. The significance of mean between groups (***p<0.001 versus control) was calculated by one-way ANOVA analysis (effector: treatment). (C) IHC staining of cell growth marker Ki-67 in vehicle-, SIM-1-, and SIM-2-treated tumors represents the cell growth property of tumor cells. […] Both hematoxylin-ir nuclei (total cells) and Ki-67-ir cells were counted in n=15 images per group, converted in percent scale, and then plotted as scatter histogram. ****p<0.0001 vs. control as derived by one-way ANOVA. (E) IHC staining of cell proliferation marker PCNA in three different groups. (F) Scatter histogram analysis of […] counted from n=15 images per group and then plotted as percent scale. […] (G) A gene array of 84 genes in a validated human breast cancer gene array (RT^2 Profiler™ PCR array; Cat #PAHS-131ZA; Qiagen) was conducted in cDNA samples extracted from TNBC tumors of vehicle, SIM-1- and SIM-2-treated (n=3) groups. The resultant gene expressions were converted in log scale and then compared with the vehicle in (G) SIM-1 and (H) SIM-2 treated groups as shown in scatter plots. […] (I) Validation of gene expressions of CCND1, CCND2, CCNE1, CDK2 genes were performed by real-time PCR analysis. (J) Upregulations of CDKN1A, and CDKN2A in SIM-1- and SIM-2-treated groups were validated by real-time PCR analyses. were Significance of mean calculated by one-way ANOVA resulted […] versus respective vehicle-groups. The results are confirmed after three different experiments.
(A) TUNEL staining to monitor apoptosis of tumor cells among all groups followed by (B) counting of TUNEL-ir cells from n=15 images per group and then plotting a scatter histogram analysis. ****p<0.0001 vs. control as derived by one-way ANOVA. (C) A protein array of 35 different apoptosis-related proteins (Human apoptosis array; Cat #ARY009; R&D Systems) was conducted in the tumor tissue extracts of three different groups. Red, purple, and green squares represent the expressions of Bad, Bax, and Cytochrome C proteins respectively. Black enclosures represent the positive controls. (D) Heatmap analysis summarizes the expressions of breast cancer 84 validated breast cancer-associated genes (RT^2 Profiler™ PCR array; Cat #PAHS-131ZA; Qiagen). These genes critically regulate the growth and apoptosis of breast cancer cells. The details of the genes can be found here (geneglobe.qiagen.com/us/product-groups/rt2-profiler-pcr-arravs/PAHS-131Z). Scatter plot analyses in FIG. 13G and FIG. 13H was performed to compare the relative expressions of apoptotic genes and growth suppressive genes between the vehicle- and SIM-1-treated as well as the vehicle- and SIM-2-treated groups.
Immunohistochemical (IHC) analyses. Tumor tissues were embedded in paraffin, cut at a thickness of 5 μm in Leica microtome, attached to a charged slide, dried in a dry bath at 37° C. for at least 48 hrs., and then progressed for IHC analysis. The IHC analysis was performed where, briefly, sections were deparaffinized by xylene and rehydrated by ethanol gradient (100%>70%>50%>20%; v/v) followed by complete rehydration by water. […]

[2] = target: STAT3 (Homo sapiens, UniProt P40763); test: Protein thermal shift assay with recombinant STAT3; type: binding; set-up: purchased Active motif 81095; settings: for ΔTm of STAT3: cut-off 2° C.; for lowest concentration that significantly (>2° C.) shifted the melt curve of STAT3: as low as; for EC50: non-linear hyperbolic binding curve, read-out: EC50 (half-maximal binding, maximum fluorescence versus dose)
STAT3, sequence (P40763 whole entry): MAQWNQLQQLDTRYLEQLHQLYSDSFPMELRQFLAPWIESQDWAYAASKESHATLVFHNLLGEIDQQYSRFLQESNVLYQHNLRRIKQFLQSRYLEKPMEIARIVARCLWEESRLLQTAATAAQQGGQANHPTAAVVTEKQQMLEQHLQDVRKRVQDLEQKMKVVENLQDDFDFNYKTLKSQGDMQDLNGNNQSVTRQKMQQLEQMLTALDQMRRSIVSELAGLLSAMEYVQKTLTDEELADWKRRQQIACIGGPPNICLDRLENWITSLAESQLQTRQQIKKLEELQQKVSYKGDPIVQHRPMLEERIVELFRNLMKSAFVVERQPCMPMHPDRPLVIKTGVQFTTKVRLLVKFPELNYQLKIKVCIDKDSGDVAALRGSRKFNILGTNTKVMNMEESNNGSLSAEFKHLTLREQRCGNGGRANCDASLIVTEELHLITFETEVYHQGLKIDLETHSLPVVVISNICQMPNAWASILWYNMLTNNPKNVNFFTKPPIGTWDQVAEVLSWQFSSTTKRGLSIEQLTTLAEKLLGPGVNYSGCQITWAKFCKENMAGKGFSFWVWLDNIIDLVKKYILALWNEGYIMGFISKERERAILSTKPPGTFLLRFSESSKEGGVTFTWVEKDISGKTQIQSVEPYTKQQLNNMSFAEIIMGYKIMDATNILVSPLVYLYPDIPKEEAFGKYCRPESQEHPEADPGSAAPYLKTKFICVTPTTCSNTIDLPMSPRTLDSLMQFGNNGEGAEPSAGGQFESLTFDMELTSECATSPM
Experimental: FIG. 5 illustrates an embodiment of the present invention and illustrates evaluations of SIM-1 and SIM-2 as STAT3 inhibitors. (A) Protein thermal shift assay was performed to assess the melting of purified recombinant STAT3 (blue; 0.5 μg protein) (Tm=melting temperature=68.88° C.). The representative melting curves were derived after adding SIM-1 (red; 4 nM), SIM-2 (purple; 8 nM), and positive control stattic (grey; 20 nM) to the STAT3 protein. The differences of melting temperature (ΔTm) between pure protein and protein+ligands are −4.54° C., −4.16° C., and 0.39° C. for SIM-1, SIM-2, and stattic (ΔTm^cut-off>2° C.). (B) Phospho protein array analysis was conducted in cell lysates of MDA-MB-468 cells treated with DMSO control (top left), 25 ng/mL EGF (top right), EGF+10 nM SIM-1 (bottom left), and EGF+SIM-2 (bottom right) for 24 hrs. Each colored arrowhead represents a specific phosphoprotein, and the description was added in the bottom of array images. S=serine and Y=tyrosine. Relative levels of (C) Tyrosine 705 (Y705) phosphorylated STAT3, (D) Serine 727 (S727) phosphorylated STAT3, (E) Tyrosine 693 (Y693) phosphorylated STAT4, (F) Tyrosine 694 ([…]) phosphorylated STAT5A had been derived after normalizing the spot densities (n=5) with respective β-actin spots. Results are mean±SD of five different spot analyses. One-way ANOVA was adopted to test the significance of mean between groups at **p<0.01, and ****p<0.0001. Ns=no significance. Thermal shift assays of increasing doses of (G) SIM-1, (H) SIM-2, and (I) stattic with purified STAT1 protein (0.5 μg protein). The respective ΔTm values were given with the plot after matching with the color code. Similarly, full-length STAT5b protein melting was assessed with (J) SIM-1, (K) SIM-2, and (L) stattic. Results are confirmed after three different experiments.
FIG. 6 illustrates an embodiment of the present invention and illustrates dose-dependent curves of maximum fluorescence for SIM1 and SIM2. Protein thermal shift assay of recombinant STAT3 was performed with increasing doses of (A) SIM-1, (B) SIM-2, and (C) positive control “Stattic”. The maximum fluorescence for each dose was derived and then plotted in GraphPad Prism software with respective doses. The resultant non-liner hyperbolic curves provide half-maximal binding (EC50) for all three compounds.
This example provides a representative study of the present disclosure to test if SIM1 and SIM2 served as ligands of STAT3. Therefore, the present invention adopted a protein thermal shift assay in which […] of recombinant human STAT3 protein (active motif) was incubated with increasing doses of SIM1 and SIM2 followed by the execution of melting analysis starting from 25 to 95° C. as described elsewhere.

[3] = Solubility in aqueous solvent; type: physicochemical

| Compound | H&E staining: size and color intensities of tumor cells [1] | apoptosis in TNBC tumor (TUNEL staining) [1] | Ki-67 immunoreactivity in tumor parenchyma [1] | ΔTm of STAT3 ([2]; 4 nM ligand) | lowest concentration that significantly (>2° C.) shifted the melt curve of STAT3 [2] | EC50 [2] | solubility in aqueous solvent [3] | ΔTm of STAT3 ([2]; 6 nM ligand) | ΔTm of STAT3 ([2]; 8 nM ligand (FIG. 5A legend)) |
| --- | --- | --- | --- | --- | --- | --- | --- | --- | --- |
| O=C(O)CCC(=O)NCc1csc2ccc(Cl)cc12 [SIM-1, 4-[(5-chloro-1-benzothiophen-3-yl)methylamino]-4-oxobutanoic acid] | strongly reduced the size and color intensities of cells | weakly induced apoptosis | strong reduction | −4.54 °C | 5 nM | 4.58 nM | partly soluble to insoluble | – | – |
| CCOC(=O)c1c(NC(C)=O)sc2c(Cl)c(/C=N/O)ccc12 [SIM-2, ethyl 2-acetamido-7-chloro-6-(hydroxyiminomethyl)-1-benzothiophene-3-carboxylate] | strongly reduced the size and color intensities of cells | weakly induced apoptosis | strong reduction | – | 5 nM | 5.26 nM | partly soluble to insoluble | −4.16 °C | −4.16 °C |
